Reference: US7713994B2 (Wyeth LLC, priority 2005, dated 2010)

How the values were obtained:
HCT-116 = assay: Cytotoxicity assay (SRB), HCT-116; type: cell-based; settings: Homo sapiens, HCT-116, 72 h, HCT116 cells, SRB, three days; read-out: In Vitro Cellular Activity IC50 HCT116
Method in brief: (§1)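 Protein staining with sulforhodamine B after cold TCA fixation served as the survival endpoint (A540, relative to untreated cells). Before staining, cells were incubated with compound at 37 °C, 7% CO2 for 3 days, or 6 days for BT474.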

cyclin D1/cdk 4 enzyme = target: T1, cyclin D1/cdk 4 enzyme (Homo sapiens, UniProt P11802); assay: CDK4 ELISA kinase assay (phospho-Rb ser 795 detection); type: biochemical; settings: In Vitro Enzyme Assays, 200 μM ATP, read-out: CDK4 IC50
T1 construct: made in house; host or cells: Sf9 insect cells, recombinant baculovirus
T1 sequence (P11802 whole entry, species assumed): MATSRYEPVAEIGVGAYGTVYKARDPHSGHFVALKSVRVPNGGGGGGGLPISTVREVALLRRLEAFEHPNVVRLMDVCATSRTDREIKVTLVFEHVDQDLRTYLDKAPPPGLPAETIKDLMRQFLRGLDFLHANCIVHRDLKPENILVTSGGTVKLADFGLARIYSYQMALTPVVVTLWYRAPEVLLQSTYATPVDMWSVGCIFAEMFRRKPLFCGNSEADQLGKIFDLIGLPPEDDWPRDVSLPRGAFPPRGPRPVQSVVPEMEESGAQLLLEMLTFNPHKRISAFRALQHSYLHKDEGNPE
T1 sequence (P24385 whole entry partner, species assumed): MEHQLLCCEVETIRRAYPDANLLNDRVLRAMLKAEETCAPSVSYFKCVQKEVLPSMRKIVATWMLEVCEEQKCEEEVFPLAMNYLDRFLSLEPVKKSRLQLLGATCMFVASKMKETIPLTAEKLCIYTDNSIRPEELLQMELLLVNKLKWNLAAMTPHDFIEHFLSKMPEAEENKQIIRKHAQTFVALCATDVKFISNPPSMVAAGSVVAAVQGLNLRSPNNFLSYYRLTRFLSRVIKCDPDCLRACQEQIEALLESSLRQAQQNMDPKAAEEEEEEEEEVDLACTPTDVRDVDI
Method in brief: (§2)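 Sf9-derived cyclin/CDK, 200 μM ATP, immobilized GST-Rb; 30° C/1 h. Detection: phospho-Ser795 Ab, HRP, TMB, OD450.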

BT474 = assay: Cytotoxicity assay (SRB), BT474; type: cell-based; settings: Homo sapiens, BT-474, 144 h, BT474 cells, SRB, 6 days; read-out: In Vitro Cellular Activity IC50 BT474
Method in brief: as §1

cyclin E/CDK2 enzyme = target: T2, cyclin E/CDK2 enzyme (Homo sapiens, UniProt P24941); assay: CDK2 ELISA kinase assay (phospho-Rb ser 795 detection); type: biochemical; settings: In Vitro Enzyme Assays, read-out: CDK2 IC50
T2 construct: made in house; host or cells: Sf9 insect cells, recombinant baculovirus
Method in brief: as §2

MCF-7 = assay: Cytotoxicity assay (SRB), MCF-7; type: cell-based; settings: Homo sapiens, MCF7, 72 h, MCF-7 cells, SRB, three days; read-out: In Vitro Cellular Activity IC50 MCF-7
Method in brief: as §1

cyclin B/CDK1 enzyme = target: T3, cyclin B/CDK1 enzyme (Homo sapiens, UniProt P06493); assay: CDK1 ELISA kinase assay (phospho-Rb ser 795 detection); type: biochemical; settings: In Vitro Enzyme Assays, read-out: CDK1 IC50
T3 construct: purchased New England BioLabs; host or cells: Sf9 insect cells, recombinant baculovirus
T3 sequence (P06493 whole entry): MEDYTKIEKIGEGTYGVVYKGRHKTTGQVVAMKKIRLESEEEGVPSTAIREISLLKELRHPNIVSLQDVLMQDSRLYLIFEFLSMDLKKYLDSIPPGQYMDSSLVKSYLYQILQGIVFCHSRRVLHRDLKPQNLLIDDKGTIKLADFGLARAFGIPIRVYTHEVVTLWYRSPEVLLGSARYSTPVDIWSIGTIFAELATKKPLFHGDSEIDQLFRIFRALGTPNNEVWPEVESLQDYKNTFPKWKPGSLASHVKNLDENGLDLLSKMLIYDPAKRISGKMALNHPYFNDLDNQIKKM
T3 sequence (P14635 whole entry partner): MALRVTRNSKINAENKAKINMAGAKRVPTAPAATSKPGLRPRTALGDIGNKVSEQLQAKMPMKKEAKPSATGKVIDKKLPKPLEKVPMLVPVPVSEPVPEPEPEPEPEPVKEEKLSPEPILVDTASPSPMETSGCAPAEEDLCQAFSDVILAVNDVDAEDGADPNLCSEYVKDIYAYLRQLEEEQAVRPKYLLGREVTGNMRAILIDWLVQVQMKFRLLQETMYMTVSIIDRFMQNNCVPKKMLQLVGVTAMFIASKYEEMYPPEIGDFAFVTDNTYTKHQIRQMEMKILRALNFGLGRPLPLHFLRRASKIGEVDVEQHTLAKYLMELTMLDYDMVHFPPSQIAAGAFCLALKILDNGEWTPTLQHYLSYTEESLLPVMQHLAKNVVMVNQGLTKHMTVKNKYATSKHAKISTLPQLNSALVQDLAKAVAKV
Method in brief: as §2

LoVo = assay: Cytotoxicity assay (SRB), LoVo; type: cell-based; settings: Homo sapiens, LoVo, 72 h, LoVo cells, SRB, three days; read-out: In Vitro Cellular Activity IC50 LOVO
Method in brief: as §1

CN1CCCN(c2ccc(N/C=C3\C(=O)NC(=O)c4ccc(Br)cc43)cc2)CC1 [Example 232, (4Z)-6-Bromo-4-({[4-(4-methyl-1,4-diazepan-1-yl)phenyl]amino}methylene)isoquinoline-1,3(2H,4H)-dione]
IC50 (HCT-116): 1.4 µM
IC50 (cyclin D1/cdk 4 enzyme): 2.7 µM
IC50 (BT474): 3.3 µM
IC50 (cyclin E/CDK2 enzyme): > 50 µM
IC50 (MCF-7): 2.1 µM
IC50 (cyclin B/CDK1 enzyme): > 50 µM
IC50 (LoVo): 3.7 µM

CN1CCN(c2ccc(N/C=C3\C(=O)NC(=O)c4ccc(-c5ccoc5)cc43)cc2)CC1 [Example 236, (4Z)-6-(3-Furyl)-4-({[4-(4-methylpiperazin-1-yl)phenyl]amino}methylene)isoquinoline-1,3(2H,4H)-dione]
IC50 (HCT-116): 1.2 µM
IC50 (cyclin D1/cdk 4 enzyme): 0.22 µM
IC50 (BT474): 1 µM
IC50 (cyclin E/CDK2 enzyme): > 50 µM
IC50 (MCF-7): 1.1 µM
IC50 (cyclin B/CDK1 enzyme): > 50 µM
IC50 (LoVo): 2.2 µM

CN(C)CCS(=O)(=O)c1ccc(N/C=C2\C(=O)NC(=O)c3ccc(Br)cc32)cc1 [Example 243]
IC50 (HCT-116): 5 µM
IC50 (cyclin D1/cdk 4 enzyme): 1.2 µM
IC50 (BT474): 13 µM
IC50 (cyclin E/CDK2 enzyme): 1.9 µM
IC50 (MCF-7): 5 µM
IC50 (cyclin B/CDK1 enzyme): 12.3 µM
IC50 (LoVo): 12 µM

CN(CCO)c1ccc(N/C=C2\C(=O)NC(=O)c3ccc(Br)cc32)cc1 [Example 244, (4Z)-6-Bromo-4-[({4-[(2-hydroxyethyl)(methyl)amino]phenyl}amino)methylene]isoquinoline-1,3(2H,4H)-dione]
IC50 (HCT-116): 4.9 µM
IC50 (cyclin D1/cdk 4 enzyme): 45.5 µM
IC50 (BT474): 9.4 µM
IC50 (cyclin E/CDK2 enzyme): > 50 µM
IC50 (MCF-7): 19 µM
IC50 (cyclin B/CDK1 enzyme): > 50 µM
IC50 (LoVo): 15 µM

CN1CCC(N(C)c2ccc(N/C=C3\C(=O)NC(=O)c4ccc(Br)cc43)cc2)C1 (centres unmarked) [Example 245, (4Z)-6-Bromo-4-[({4-[methyl(1-methylpyrrolidin-3-yl)amino]phenyl}amino)methylene]isoquinoline-1,3(2H,4H)-dione]
IC50 (HCT-116): 3.4 µM
IC50 (cyclin D1/cdk 4 enzyme): 2 µM
IC50 (BT474): 8.4 µM
IC50 (cyclin E/CDK2 enzyme): > 50 µM
IC50 (MCF-7): 3 µM
IC50 (cyclin B/CDK1 enzyme): > 50 µM
IC50 (LoVo): 6.6 µM

CN(CCN1CCCC1)c1ccc(N/C=C2\C(=O)NC(=O)c3ccc(Br)cc32)cc1 [Example 255, (4Z)-6-Bromo-4-[({4-[methyl(2-pyrrolidin-1-ylethyl)amino]phenyl}amino)methylene]isoquinoline-1,3(2H,4H)-dione]
IC50 (HCT-116): 3.1 µM
IC50 (cyclin D1/cdk 4 enzyme): 2.5 µM
IC50 (BT474): 7.9 µM
IC50 (cyclin E/CDK2 enzyme): > 50 µM
IC50 (MCF-7): 3.6 µM
IC50 (cyclin B/CDK1 enzyme): > 50 µM
IC50 (LoVo): 3.8 µM

CN(CCN1CCCCC1)c1ccc(N/C=C2\C(=O)NC(=O)c3ccc(Br)cc32)cc1 [Example 256, (4Z)-6-Bromo-4-[({4-[methyl(2-piperidin-1-ylethyl)amino]phenyl}amino)methylene]isoquinoline-1,3(2H,4H)-dione]
IC50 (HCT-116): 3.1 µM
IC50 (cyclin D1/cdk 4 enzyme): 4.3 µM
IC50 (BT474): 7.5 µM
IC50 (cyclin E/CDK2 enzyme): > 50 µM
IC50 (MCF-7): 5.3 µM
IC50 (cyclin B/CDK1 enzyme): > 50 µM
IC50 (LoVo): 3.6 µM

CN(C)CCOc1ccc(N/C=C2\C(=O)NC(=O)c3ccc(Br)cc32)cc1 [Example 258, (4Z)-6-Bromo-4-[({4-[2-(dimethylamino)ethoxy]phenyl}amino)methylene]isoquinoline-1,3(2H,4H)-dione]
IC50 (HCT-116): 3.5 µM
IC50 (cyclin D1/cdk 4 enzyme): 0.48 µM
IC50 (BT474): 8.3 µM
IC50 (cyclin E/CDK2 enzyme): > 50 µM
IC50 (MCF-7): 6.7 µM
IC50 (cyclin B/CDK1 enzyme): > 50 µM
IC50 (LoVo): 5.3 µM

CN1Cc2ccc(N/C=C3\C(=O)NC(=O)c4ccc(Br)cc43)cc2C1 [Example 259, (4Z)-6-Bromo-4-{[(2-methyl-2,3-dihydro-1H-isoindol-5-yl)amino]methylene}isoquinoline-1,3(2H,4H)-dione]
IC50 (HCT-116): 2.5 µM
IC50 (cyclin D1/cdk 4 enzyme): 1.2 µM
IC50 (BT474): 6.8 µM
IC50 (cyclin E/CDK2 enzyme): 2.5 µM
IC50 (MCF-7): 5.5 µM
IC50 (cyclin B/CDK1 enzyme): 20.7 µM
IC50 (LoVo): 3.9 µM

O=C1NC(=O)c2ccc(Br)cc2/C1=C/Nc1ccc(-n2ccnc2)cc1 [Example 260, (4Z)-6-Bromo-4-({[4-(1H-imidazol-1-yl)phenyl]amino}methylene)isoquinoline-1,3(2H,4H)-dione]
IC50 (HCT-116): 5.4 µM
IC50 (cyclin D1/cdk 4 enzyme): 22.6 µM
IC50 (BT474): > 50 µM
IC50 (cyclin E/CDK2 enzyme): 14.7 µM
IC50 (MCF-7): > 50 µM
IC50 (cyclin B/CDK1 enzyme): > 50 µM
IC50 (LoVo): > 50 µM

CN1CCN(c2ccc(N/C=C3\C(=O)NC(=O)c4ccc(-c5ccc(F)cc5)cc43)cc2)CC1 [Example 263, (4Z)-6-(4-Fluorophenyl)-4-({[4-(4-methylpiperazin-1-yl)phenyl]amino}methylene)-isoquinoline-1,3(2H,4H)-dione]
IC50 (HCT-116): 1.3 µM
IC50 (cyclin D1/cdk 4 enzyme): 0.5 µM
IC50 (BT474): 2.9 µM
IC50 (cyclin E/CDK2 enzyme): > 50 µM
IC50 (MCF-7): 3.1 µM
IC50 (cyclin B/CDK1 enzyme): > 50 µM
IC50 (LoVo): 2.9 µM

CC(=O)Oc1cc(CN/C=C2\C(=O)NC(=O)c3ccc(Br)cc32)cc2c1OC(C)(C)O2 [Example 268, 6-({[(Z)-(6-Bromo-1,3-dioxo-2,3-dihydroisoquinolin-4(1H)-ylidene)methyl]amino}methyl)-2,2-dimethyl-1,3-benzodioxol-4-yl acetate]
IC50 (HCT-116): 29 µM
IC50 (cyclin D1/cdk 4 enzyme): 34.7 µM
IC50 (BT474): > 50 µM
IC50 (cyclin E/CDK2 enzyme): 23.6 µM
IC50 (MCF-7): 35 µM
IC50 (cyclin B/CDK1 enzyme): 1.2 µM
IC50 (LoVo): 47 µM

CC1(C)Oc2cc(CN/C=C3\C(=O)NC(=O)c4ccc(Br)cc43)cc(OC(=O)C3CC3)c2O1 [Example 269, 6-({[(Z)-(6-Bromo-1,3-dioxo-2,3-dihydroisoquinolin-4(1H)-ylidene)methyl]amino}methyl)-2,2-dimethyl-1,3-benzodioxol-4-yl cyclopropanecarboxylate]
IC50 (HCT-116): 25 µM
IC50 (cyclin D1/cdk 4 enzyme): > 50 µM
IC50 (BT474): 43 µM
IC50 (cyclin E/CDK2 enzyme): 24.7 µM
IC50 (MCF-7): 29 µM
IC50 (cyclin B/CDK1 enzyme): 1.9 µM
IC50 (LoVo): 41 µM

CN(C)CCCc1ccc(N/C=C2\C(=O)NC(=O)c3ccc(Br)cc32)cc1 [Example 270, (4Z)-6-Bromo-4-[({4-[3-(dimethylamino)propyl]phenyl}amino)methylene]isoquinoline-1,3(2H,4H)-dione]
IC50 (HCT-116): 13 µM
IC50 (cyclin D1/cdk 4 enzyme): 3 µM
IC50 (BT474): 27 µM
IC50 (cyclin E/CDK2 enzyme): 38.8 µM
IC50 (MCF-7): 7.2 µM
IC50 (cyclin B/CDK1 enzyme): > 50 µM
IC50 (LoVo): 24 µM

CONCCCc1ccc(N/C=C2\C(=O)NC(=O)c3ccc(Br)cc32)cc1 [Example 274, (4Z)-6-Bromo-4-[({4-[3-(methoxyamino)propyl]phenyl}amino)methylene]isoquinoline-1,3(2H,4H)-dione]
IC50 (HCT-116): 9.5 µM
IC50 (cyclin D1/cdk 4 enzyme): 1.9 µM
IC50 (BT474): 12 µM
IC50 (cyclin E/CDK2 enzyme): 2.8 µM
IC50 (MCF-7): 10.3 µM
IC50 (cyclin B/CDK1 enzyme): 15.1 µM
IC50 (LoVo): 12.5 µM

CN(C)CCCN(C)c1ccc(N/C=C2\C(=O)NC(=O)c3ccc(Br)cc32)cc1 [Example 275, (4Z)-6-Bromo-4-[({4-[[3-(dimethylamino)propyl](methyl)amino]phenyl}amino)methylene]isoquinoline-1,3(2H,4H)-dione]
IC50 (HCT-116): 4.2 µM
IC50 (cyclin D1/cdk 4 enzyme): 14.4 µM
IC50 (BT474): 10 µM
IC50 (cyclin E/CDK2 enzyme): > 50 µM
IC50 (MCF-7): 5.3 µM
IC50 (cyclin B/CDK1 enzyme): > 50 µM
IC50 (LoVo): 8.6 µM

CN1CCC(Oc2ccc(N/C=C3\C(=O)NC(=O)c4ccc(Br)cc43)cc2)C1 (centres unmarked) [Example 276, (4Z)-6-Bromo-4-[({4-[(1-methylpyrrolidin-3-yl)oxy]phenyl}amino)methylene]isoquinoline-1,3(2H,4H)-dione]
IC50 (HCT-116): 3.9 µM
IC50 (cyclin D1/cdk 4 enzyme): 42.5 µM
IC50 (BT474): 8.3 µM
IC50 (cyclin E/CDK2 enzyme): > 50 µM
IC50 (MCF-7): 4.4 µM
IC50 (cyclin B/CDK1 enzyme): > 50 µM
IC50 (LoVo): 6.2 µM
